Converted amounts (≈) assume the structure as drawn. Each block holds one molecule with its values, some of them ahead of it.
Key:
Assay in all cases: ≥ marks a high value that may be exact or a test limit, other limits are often not marked, values filed in µg/mL are converted to µM
[1] = test system: Enterococcus faecium mic80
[2] = test system: Pseudomonas aeruginosa PAO1 H103
[3] = test system: Pseudomonas aeruginosa H1030
[4] = test system: Pseudomonas aeruginosa LES400
[5] = test system: Escherichia coli ESBL 64771
[6] = test system: Enterobacter cloacae 218R
[7] = test system: Staphylococcus aureus C623
[8] = test system: Pseudomonas aeruginosa H1027
[9] = test system: Klebsiella pneumoniae ESBL 61962
[10] = test system: Stenotrophomonas maltophilia ATCC 13637
[11] = test system: Enterococcus faecalis W61950
[12] = test system: Pseudomonas aeruginosa 213
[13] = test system: Enterococcus faecalis f43559
[14] = test system: Enterococcus faecium t62764
[15] = test system: Staphylococcus aureus ATCC 25923
[16] = test system: Escherichia coli ESBL 63103
Pseudomonas aeruginosa 9 = test system: Pseudomonas aeruginosa 9
[17] = test system: Pseudomonas aeruginosa 198
[18] = test system: Klebsiella pneumoniae ESBL 63575
[19] = test system: Enterococcus faecalis ATCC 29212
[20] = test system: Batrachochytrium dendrobatidis JEL-197
[21] = test system: Salmonella enterica subsp. enterica serovar Typhimurium ATCC 14028
[22] = test system: Klebsiella pneumoniae ATCC 10031
[23] = test system: Pseudomonas aeruginosa ATCC 13388
[24] = test system: Escherichia coli ATCC 11219
[25] = test system: Staphylococcus aureus ATCC 6538
Escherichia coli AB94012 = test system: Escherichia coli AB94012
[26] = test system: Staphylococcus aureus P1374
[27] = test system: Pseudomonas aeruginosa ATCC 9027
[28] = test system: Staphylococcus aureus AB94004
[29] = test system: Pseudomonas aeruginosa AB93066
[30] = test system: Escherichia coli ATCC 25922
[31] = test system: Staphylococcus aureus P1381
[32] = test system: Escherichia coli ESBL 521/17
[33] = test system: Staphylococcus aureus 1399/17
[34] = test system: Staphylococcus aureus SG511
[35] = test system: Klebsiella pneumoniae ESBL 344/17
Escherichia coli ML-35p = test system: Escherichia coli ML-35p
[36] = test system: Pseudomonas aeruginosa 522/17
[37] = test system: Staphylococcus aureus ATCC 33591
[38] = test system: Acinetobacter baumannii 7226/16

Structure (SMILES): CC[C@H](C)[C@H](NC(=O)CN)C(=O)N[C@@H](Cc1cnc[nH]1)C(=O)N[C@@H](CC(=O)O)C(=O)N[C@H](C(=O)N[C@@H](CC(C)C)C(=O)N[C@@H](CCCCN)C(=O)N[C@@H](Cc1ccc(O)cc1)C(=O)NCC(=O)N[C@@H](CCCCN)C(=O)N1CCC[C@H]1C(=O)N[C@@H](CO)C(N)=O)[C@@H](C)CC [GIHDILKYGKPS]
MIC [21]: 20 µM (≈ 26.5 µg/mL)
MIC [22]: 10 µM (≈ 13.3 µg/mL)
MIC [23]: 30 µM (≈ 39.8 µg/mL)
MIC [24]: 5 µM (≈ 6.63 µg/mL)
MIC [25]: 10 µM (≈ 13.3 µg/mL)

Structure (SMILES): CC[C@H](C)[C@H](NC(=O)CN)C(=O)N[C@@H](Cc1cnc[nH]1)C(=O)N[C@@H](CCCN=C(N)N)C(=O)N[C@H](C(=O)N[C@@H](CC(C)C)C(=O)N[C@@H](CCCCN)C(=O)N[C@@H](Cc1ccc(O)cc1)C(=O)NCC(=O)N[C@@H](CCCCN)C(=O)N1CCC[C@H]1C(=O)N[C@@H](CO)C(N)=O)[C@@H](C)CC [GIHRILKYGKPS]
MIC [21]: 3 µM (≈ 4.1 µg/mL)
MIC [22]: 3 µM (≈ 4.1 µg/mL)
MIC [23]: 10 µM (≈ 13.7 µg/mL)
MIC [24]: 2.2 µM (≈ 3.01 µg/mL)
MIC [25]: 10 µM (≈ 13.7 µg/mL)

Structure (SMILES): CC[C@H](C)[C@H](NC(=O)[C@H](CO)NC(=O)[C@H](CCCCN)NC(=O)[C@@H](NC(=O)CNC(=O)[C@H](CCCCN)NC(=O)[C@H](Cc1c[nH]c2ccccc12)NC(=O)[C@H](CC(C)C)NC(=O)[C@H](CCCCN)NC(=O)CNC(=O)[C@H](CC(C)C)NC(=O)[C@@H](NC(=O)[C@@H](N)CCCCN)[C@@H](C)CC)C(C)C)C(=O)N[C@@H](Cc1ccccc1)C(N)=O [KILGKLWKGVKSIF]
MIC (Escherichia coli AB94012): 15.5 µM (≈ 25 µg/mL)
MIC [26]: 3.87 µM (≈ 6.25 µg/mL)
MIC [27]: 30.9 µM (≈ 50 µg/mL)
MIC [28]: 3.87 µM (≈ 6.25 µg/mL)
MIC [29]: 30.9 µM (≈ 50 µg/mL)
MIC [30]: 30.9 µM (≈ 50 µg/mL)
MIC [15]: 7.73 µM (≈ 12.5 µg/mL)
MIC [31]: 3.87 µM (≈ 6.25 µg/mL)
MIC [25]: 7.73 µM (≈ 12.5 µg/mL)

Structure (SMILES): CC[C@H](C)[C@H](NC(=O)[C@H](CCCN=C(N)N)NC(=O)[C@@H](NC(=O)[C@@H]1CCCN1C(=O)[C@@H]1CCCN1C(=O)[C@H](CCCN=C(N)N)NC(=O)[C@H](CCCN=C(N)N)NC(=O)[C@H](Cc1ccccc1)NC(=O)[C@@H]1CCCN1C(=O)[C@H](CC(C)C)NC(=O)[C@H](CCCN=C(N)N)NC(=O)[C@H](Cc1ccccc1)NC(=O)[C@@H](N)CCCN=C(N)N)[C@@H](C)CC)C(=O)N[C@@H](Cc1cnc[nH]1)C(=O)N1CCC[C@H]1C(=O)N1CCC[C@H]1C(=O)N1CCC[C@H]1C(=O)N[C@@H](Cc1ccccc1)C(=O)N[C@@H](Cc1ccc(O)cc1)C(N)=O [RFRLPFRRPPIRIHPPPFY]
MIC [32]: 4 µM (≈ 9.85 µg/mL)
MIC [33]: ≥ 32 µM
MIC [34]: 4 µM (≈ 9.85 µg/mL)
MIC [35]: 8 µM (≈ 19.7 µg/mL)
MIC (Escherichia coli ML-35p): 4 µM (≈ 9.85 µg/mL)
MIC [36]: ≥ 64 µM
MIC [37]: ≥ 64 µM
MIC [38]: 16 µM (≈ 39.4 µg/mL)

Structure (SMILES): CC[C@H](C)[C@H](NC(=O)[C@@H](N)CCCN=C(N)N)C(=O)N[C@@H](Cc1cnc[nH]1)C(=O)N1CCC[C@H]1C(=O)N1CCC[C@H]1C(=O)N1CCC[C@H]1C(=O)N[C@@H](Cc1ccccc1)C(=O)N[C@@H](Cc1ccc(O)cc1)C(=O)N1CCC[C@H]1C(=O)N1CCC[C@H]1C(=O)N[C@@H](Cc1ccccc1)C(=O)N[C@@H](CCCN=C(N)N)C(=O)N[C@@H](CCCN=C(N)N)C(=O)N[C@@H](Cc1ccccc1)C(=O)N[C@@H](CC(C)C)C(N)=O [RIHPPPFYPPFRRFL]
MIC [32]: ≥ 32 µM
MIC [33]: ≥ 32 µM
MIC [34]: 8 µM (≈ 15.5 µg/mL)
MIC [35]: ≥ 64 µM
MIC (Escherichia coli ML-35p): ≥ 64 µM
MIC [36]: ≥ 128 µM
MIC [37]: ≥ 90.5 µM
MIC [38]: ≥ 32 µM

Other lines, results leading:

MIC [1]: ≥ 149 µM
MIC [2]: ≥ 149 µM
MIC [3]: ≥ 149 µM
MIC [4]: ≥ 149 µM
MIC [5]: ≥ 149 µM
MIC [6]: ≥ 149 µM
MIC [7]: ≥ 149 µM
MIC [8]: ≥ 74.7 µM
MIC [9]: ≥ 149 µM
MIC [10]: ≥ 149 µM
MIC [11]: ≥ 149 µM
MIC [12]: ≥ 149 µM
MIC [13]: ≥ 149 µM
MIC [14]: ≥ 149 µM
MIC [15]: 149 µM (≈ 182 µg/mL)
MIC [16]: ≥ 149 µM
MIC (Pseudomonas aeruginosa 9): ≥ 149 µM
MIC [17]: ≥ 149 µM
MIC [18]: ≥ 149 µM
MIC [19]: > 149 µM
Structure (SMILES): CC[C@H](C)[C@H](NC(=O)[C@H](CC(N)=O)NC(=O)[C@H](CCCCN)NC(=O)[C@H](Cc1ccccc1)NC(=O)[C@H](CCCN=C(N)N)NC(=O)[C@H](Cc1c[nH]c2ccccc12)NC(=O)[C@H](C)N)C(=O)N[C@@H](CCCN=C(N)N)C(=O)N[C@@H](CCCCN)C(=O)O [AWRFKNIRK]

MIC [20]: 12.5 µM (≈ 31.6 µg/mL)
Structure (SMILES): CC[C@H](C)[C@H](NC(=O)[C@H](CC(C)C)NC(=O)[C@H](CCCCN)NC(=O)[C@@H]1CCCN1C(=O)[C@@H](NC(=O)[C@H](CC(C)C)NC(=O)[C@H](CC(N)=O)NC(=O)[C@H](C)NC(=O)[C@H](C)NC(=O)[C@H](CC(C)C)NC(=O)CNC(=O)[C@H](C)NC(=O)[C@H](CC(C)C)NC(=O)[C@@H](NC(=O)[C@@H]1CCCN1C(=O)[C@H](CC(C)C)NC(=O)[C@@H](N)Cc1ccccc1)[C@@H](C)CC)C(C)C)C(=O)N[C@H]1CSSC[C@@H](C(=O)O)NC(=O)[C@H](CCCCN)NC(=O)[C@H](CCCCN)NC(=O)[C@H]([C@@H](C)O)NC(=O)[C@H]([C@@H](C)CC)NC(=O)[C@H](CO)NC1=O [FLPILAGLAANLVPKLICSITKKC]

MIC [1]: 12.1 µM (≈ 17 µg/mL)
MIC [2]: 6.05 µM (≈ 8.5 µg/mL)
MIC [3]: 24.2 µM (≈ 34 µg/mL)
MIC [4]: 6.05 µM (≈ 8.5 µg/mL)
MIC [5]: 6.05 µM (≈ 8.5 µg/mL)
MIC [6]: 3.06 µM (≈ 4.3 µg/mL)
MIC [7]: 1.57 µM (≈ 2.2 µg/mL)
MIC [8]: 1.57 µM (≈ 2.2 µg/mL)
MIC [9]: ≥ 98.2 µM
MIC [10]: 0.782 µM (≈ 1.1 µg/mL)
MIC [11]: ≥ 49.1 µM
MIC [12]: 24.2 µM (≈ 34 µg/mL)
MIC [13]: ≥ 49.1 µM
MIC [14]: 3.06 µM (≈ 4.3 µg/mL)
MIC [15]: 1.57 µM (≈ 2.2 µg/mL)
MIC [16]: 12.1 µM (≈ 17 µg/mL)
MIC (Pseudomonas aeruginosa 9): 12.1 µM (≈ 17 µg/mL)
MIC [17]: 12.1 µM (≈ 17 µg/mL)
MIC [18]: ≥ 49.1 µM
MIC [19]: 12.1 µM (≈ 17 µg/mL)
Structure (SMILES): CC[C@H](C)[C@H](NC(=O)[C@H](CCCCN)NC(=O)[C@H](Cc1c[nH]c2ccccc12)NC(=O)[C@@H](N)CCCCN)C(=O)N[C@@H](Cc1ccccc1)C(=O)N[C@@H](CCCN=C(N)N)C(=O)N[C@@H](CCCN=C(N)N)C(=O)N[C@@H](Cc1c[nH]c2ccccc12)C(=O)N[C@@H](Cc1c[nH]c2ccccc12)C(=O)O [KWKIFRRWW]

From DBAASP
